{"source": "patent US20260240991A1", "about": "“METHODS OF HEMATOPOIETIC PRECURSOR CELLS MOBILIZATION” (BioLineRx Ltd., priority 2023, published 2026)", "origin": "cited, not measured here", "key": {"PB progenitor cells": {"system": "PB progenitor cells", "conditions": "mice"}, "CD34+ cells": {"system": "CD34+ cells", "conditions": "patients with MS"}}, "note": "Like-named read-outs stand apart in the source and are kept apart here. Bridges are numbered along the chain shown (N, C = ends). [ ]: non-standard residue; d: D form. The star is where a group is joined. 2Nal = N[C@@H](Cc1ccc2ccccc2c1)C(=O)O; Benzoyl(4-F) = O=C(c1ccc(F)cc1)*; Cit = NC(=O)NCCC[C@H](N)C(=O)O", "data": [{"substance": "4F-benzoyl-Arg-Arg-Nal-Cys-Tyr-Cit-Lys-DLys-Pro-Tyr-Arg-Cit-Cys-Arg-NH2 ({Benzoyl(4-F)}-RR[2Nal]CY[Cit]K[dK]PYR[Cit]CR-NH2; disulfide 4-13 (inferred)) [Motixafortide]", "values": [{"measurement": "increase in PB progenitor cells", "setting": "PB progenitor cells; agent alone", "value": "≤ 10", "unit": "fold"}, {"measurement": "time of peak of PB progenitor cell increase following administration of the dose", "setting": "PB progenitor cells; agent alone", "value": "1 to 2", "unit": "h"}, {"measurement": "PB progenitor cell increase compared with Plerixafor and G-CSF", "setting": "PB progenitor cells; combined with G-CSF", "value": "higher than seen with a combination of Plerixafor and G-CSF"}, {"measurement": "increase in PB progenitor cells over controls", "setting": "PB progenitor cells; combined with G-CSF", "value": 78, "unit": "fold"}, {"measurement": "tolerability", "setting": "PB CD34+ cells; human, in vivo", "value": "well-tolerated"}, {"measurement": "number of apheresis sessions required", "setting": "PB CD34+ cells; myeloma patients, 900 μg/kg", "value": 1}, {"measurement": "effect on mean absolute PB CD34+ cells", "setting": "PB CD34+ cells; myeloma patients, dose escalation", "value": "dose-dependent increase"}, {"measurement": "mean PB CD34+ count", "setting": "PB CD34+ cells; myeloma patients, highest dose tested 900 μg/kg", "value": "2.06e+07", "unit": "kg⁻¹"}, {"measurement": "number of apheresis sessions required", "setting": "PB CD34+ cells; myeloma patients, lower doses", "value": 2.25}]}, {"substance": "Natalizumab: recombinant humanized monoclonal antibody against d4 subunit of VLA-4", "values": [{"measurement": "maximal concentration of circulating CD34+ cells", "setting": "circulating CD34+ cells; MS patients, 72 hours following administration", "value": 10.4, "unit": "CD34+ cells/μL"}, {"measurement": "persistence of elevation in PB CD34+ cells following administration", "setting": "circulating CD34+ cells; Zohren and Bonig", "value": "at least 1 month"}, {"measurement": "increase in PB CD34+ cells", "setting": "CD34+ cells", "value": 7, "unit": "fold"}, {"measurement": "time of maximum absolute CD34+ count following treatment", "setting": "CD34+ cells", "value": 4, "unit": "days"}, {"measurement": "increase in BM CD34+ cells", "setting": "CD34+ cells; dose-dependent", "value": 7, "unit": "fold"}]}]}
